{
  "source": "patent US20180092393A1",
  "about": "“IRON NICOTINATE COMPOSITION” (NESTEC S.A., priority 2015, published 2018)",
  "details": "colour difference vs product with no iron salts; approximately 2.1 mg iron per 100 g; flash pasteurized at 3.05° C. for 2 minutes; 47.3% banana puree",
  "description": "Colour measurements were performed in 1×1 cm polystyrene cuvettes using an X-Rite ColorEye 7000A colorimeter. The colorimeter was set up with a D65 light source, 3.0 degree observer angle and with specular component included. The colour difference between the product with no iron salts and the iron fortified product was measured for each iron salt and expressed as ΔEab* using the CIELAB colour scale.",
  "data": [
    {"smiles": "O=S(=O)([O-])[O-].[Fe+2]", "note": "[Ferrous sulphate]", "values": [
      {"measurement": "ΔEab*", "value": 3.26}
    ]}
  ]
}
